The record followed here is patent US7795261B2, “Substituted 1-piperidin-4-yl-4-pyrrolidin-3-yl-piperazine derivatives and their use as neurokinin antagonists” (Janssen Pharmaceutica NV, priority 2002, dated 2010).

What all share (format): cell-based
The target in one experiment is NK1 (Homo sapiens, UniProt P25103). Kind of experiment: Signal transduction (ST), intracellular Ca++ (FLIPR), NK1 antagonistic activity. The following applies: read-out: pIC50 NK1 (converted). In short, it runs like this:
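Confluent cells loaded with 2 μM Fluo3 (1 h, 37 °C, probenecid), preincubated 20 min at RT with antagonist concentration range, then agonist added. Peak Ca++ transient read by FLIPR in Krebs buffer pH 7.4; IC50 by non-linear regression.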

The next experiment deals with T1, NK2 (Homo sapiens, UniProt P21452).
T1 sequence (P21452 1-398): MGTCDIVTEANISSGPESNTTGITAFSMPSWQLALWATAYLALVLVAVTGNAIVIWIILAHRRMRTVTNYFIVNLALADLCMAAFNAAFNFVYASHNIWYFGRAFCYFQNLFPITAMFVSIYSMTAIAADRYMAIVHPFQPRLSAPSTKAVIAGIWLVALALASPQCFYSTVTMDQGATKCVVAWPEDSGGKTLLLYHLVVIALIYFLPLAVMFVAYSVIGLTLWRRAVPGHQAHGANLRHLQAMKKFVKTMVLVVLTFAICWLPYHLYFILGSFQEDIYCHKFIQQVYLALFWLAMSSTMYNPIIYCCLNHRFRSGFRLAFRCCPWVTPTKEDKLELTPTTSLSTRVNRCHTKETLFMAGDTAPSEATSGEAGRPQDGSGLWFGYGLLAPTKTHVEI
Kind of experiment: Signal transduction (ST), intracellular Ca++ (FLIPR), NK2. The following applies: read-out: pIC50 NK2 (converted). How it is done:
[The procedure below names another target; the source lists this target under the same test.] This test evaluates in vitro functional NK1 antagonistic activity. For the measurements of intracellular Ca^++ concentrations the cells were grown on 96-well (black wall/transparent bottom) plates from Costar for 2 days until they reached confluence. The cells were loaded with 2 μM Fluo3 in DMEM containing 0.1% BSA and 2.5 mM probenecid for 1 h at 37° C. They were washed 3× with a Krebs buffer (140 mM NaCl, 1 mM MgCl2×6H2O, 5 mM KCl, 10 mM glucose, 5 mM HEPES; 1.25 mM CaCl2; pH 7.4) containing 2.5 mM probenecid and 0.1% BSA (Ca^++-buffer). The cells were preincubated with a concentration range of antagonists for 20 min at RT and Ca^++-signals after addition of the agonists were measured in a Fluorescence Image Plate Reader (FLIPR from Molecular Devices, Crawley, England). The peak of the Ca^++-transient was considered as the relevant signal and the mean values of corresponding wells were analysed as described below.
The sigmoidal dose response curves were analysed by computerised curve-fitting, using the GraphPad Program. […] For antagonist responses the IC50-value was calculated using non-linear regression.
The last columns indicates—without being limited therefore—for which the compounds might be most suitable. Of course, since for some neurokinin receptors no data was determined, it is obvious that these compounds might be attributed to another suitable use.

Another experiment addresses T2, NK3 (Homo sapiens, UniProt P29371).
T2 sequence (P29371 1-465): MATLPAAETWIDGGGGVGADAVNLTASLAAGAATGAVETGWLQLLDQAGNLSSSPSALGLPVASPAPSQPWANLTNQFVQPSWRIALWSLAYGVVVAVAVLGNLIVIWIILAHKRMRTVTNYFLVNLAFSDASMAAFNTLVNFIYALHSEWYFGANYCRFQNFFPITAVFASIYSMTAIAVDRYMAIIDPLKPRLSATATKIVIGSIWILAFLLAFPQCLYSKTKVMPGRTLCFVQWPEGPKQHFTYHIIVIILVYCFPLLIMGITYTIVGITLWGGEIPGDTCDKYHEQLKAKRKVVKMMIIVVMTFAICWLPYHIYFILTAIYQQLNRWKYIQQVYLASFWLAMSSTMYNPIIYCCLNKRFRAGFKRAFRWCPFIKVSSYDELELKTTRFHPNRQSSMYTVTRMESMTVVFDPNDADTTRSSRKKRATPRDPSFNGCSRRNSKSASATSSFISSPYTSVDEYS
Kind of experiment: Signal transduction (ST), intracellular Ca++ (FLIPR), NK3. The following applies: read-out: pIC50 NK3 (converted).

Sequence of NK1 (P25103 whole entry): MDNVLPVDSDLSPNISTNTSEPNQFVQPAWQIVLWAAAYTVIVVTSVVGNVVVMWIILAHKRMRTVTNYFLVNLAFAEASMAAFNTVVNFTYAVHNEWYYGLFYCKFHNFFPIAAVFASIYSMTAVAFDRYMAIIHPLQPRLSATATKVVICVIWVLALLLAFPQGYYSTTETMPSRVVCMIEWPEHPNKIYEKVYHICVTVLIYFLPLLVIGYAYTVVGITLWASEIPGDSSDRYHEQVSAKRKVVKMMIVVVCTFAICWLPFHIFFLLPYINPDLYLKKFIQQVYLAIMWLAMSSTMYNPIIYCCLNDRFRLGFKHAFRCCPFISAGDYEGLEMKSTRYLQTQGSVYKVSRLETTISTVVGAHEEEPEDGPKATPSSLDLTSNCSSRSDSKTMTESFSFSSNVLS

For the molecule `O=C(c1ccccc1Cl)N1CCC(N2CCN([C@H]3CCN(C(=O)c4cc(C(F)(F)F)cc(C(F)(F)F)c4)[C@H](Cc4ccccc4)C3)CC2)C1` (stereo partly drawn) [Compound 17], the values for the IC50 on NK1, at NK2 and at NK3 were 0.0158 µM, 7.94 µM and 0.251 µM, respectively.
On to `Cc1cccc(C(=O)N2CCC(N3CCN([C@H]4CCN(C(=O)c5cc(C(F)(F)F)cc(C(F)(F)F)c5)[C@H](Cc5ccccc5)C4)CC3)C2)c1C` (stereo partly drawn) [Compound 19], for which the IC50 at NK1 is 0.0398 µM; on NK2, 7.94 µM; at NK3, 0.398 µM.
For the molecule `O=C(c1cc(F)ccc1F)N1CCC(N2CCN([C@H]3CCN(C(=O)c4cc(C(F)(F)F)cc(C(F)(F)F)c4)[C@H](Cc4ccccc4)C3)CC2)C1` (stereo partly drawn) [Compound 21], the IC50 at NK1 is 0.0126 µM; at NK2, 5.01 µM; on NK3, 0.398 µM.
Take `Cn1ccc(C(=O)N2CCC(N3CCN([C@H]4CCN(C(=O)c5cc(C(F)(F)F)cc(C(F)(F)F)c5)[C@H](Cc5ccccc5)C4)CC3)C2)c1` (stereo partly drawn) [Compound 23]: the IC50 on NK1 is 0.0316 µM; at NK2, 3.16 µM; at NK3, 0.501 µM.
`Cn1cccc1C(=O)N1CCC(N2CCN([C@H]3CCN(C(=O)c4cc(C(F)(F)F)cc(C(F)(F)F)c4)[C@H](Cc4ccccc4)C3)CC2)C1` (stereo partly drawn) [Compound 24]: the IC50 on NK1 was 0.0251 µM; at NK2, 6.31 µM; on NK3, 0.251 µM.
Consider `O=C(c1cn[nH]c1)N1CCC(N2CCN([C@H]3CCN(C(=O)c4cc(C(F)(F)F)cc(C(F)(F)F)c4)[C@H](Cc4ccccc4)C3)CC2)C1` (stereo partly drawn) [Compound 25], for which the IC50 on NK1 is 0.02 µM; on NK2, 5.01 µM; at NK3 it was 5.01 µM.
On to `Cc1cc(C(=O)N2CCC(N3CCN([C@H]4CCN(C(=O)c5cc(C(F)(F)F)cc(C(F)(F)F)c5)[C@H](Cc5ccccc5)C4)CC3)C2)n(C)n1` (stereo partly drawn) [Compound 26], for which the IC50 at NK1 is 0.01 µM; on NK2, 1.58 µM; on NK3, 0.158 µM.
`Cc1cc(C(=O)N2CCC(N3CCN([C@H]4CCN(C(=O)c5cc(C(F)(F)F)cc(C(F)(F)F)c5)[C@H](Cc5ccccc5)C4)CC3)C2)n(C(C)(C)C)n1` (stereo partly drawn) [Compound 27]: the IC50 is 0.0158 µM at NK1, 0.631 µM at NK2 and 0.316 µM on NK3.
Turning to `O=C(c1cnccn1)N1CCC(N2CCN([C@H]3CCN(C(=O)c4cc(C(F)(F)F)cc(C(F)(F)F)c4)[C@H](Cc4ccccc4)C3)CC2)C1` (stereo partly drawn) [Compound 30], the IC50 at NK1 is 0.0316 µM; at NK2 it was 3.98 µM; at NK3, 1 µM.
`O=C(c1ccoc1)N1CCC(N2CCN([C@H]3CCN(C(=O)c4cc(C(F)(F)F)cc(C(F)(F)F)c4)[C@H](Cc4ccccc4)C3)CC2)C1` (stereo partly drawn) [Compound 34]: the IC50 on NK1 was 0.02 µM; at NK2 it was 3.16 µM; at NK3, 0.316 µM.
Turning to `O=C(c1ccco1)N1CCC(N2CCN([C@H]3CCN(C(=O)c4cc(C(F)(F)F)cc(C(F)(F)F)c4)[C@H](Cc4ccccc4)C3)CC2)C1` (stereo partly drawn) [Compound 35], the IC50 on NK1 is 0.0251 µM; at NK2, 3.98 µM; on NK3, 0.2 µM.
Regarding `O=C(c1ccsc1)N1CCC(N2CCN([C@H]3CCN(C(=O)c4cc(C(F)(F)F)cc(C(F)(F)F)c4)[C@H](Cc4ccccc4)C3)CC2)C1` (stereo partly drawn) [Compound 41], the IC50 on NK1 is 0.0158 µM; at NK2 it was 1.58 µM; on NK3 it was 0.2 µM.
Consider `Cc1ccc(C(=O)N2CCC(N3CCN([C@H]4CCN(C(=O)c5cc(C(F)(F)F)cc(C(F)(F)F)c5)[C@H](Cc5ccccc5)C4)CC3)C2)s1` (stereo partly drawn) [Compound 43], for which the IC50 at NK1 was 0.0251 µM; at NK2 it was 7.94 µM; at NK3, 0.631 µM.
For `O=C(c1cc(Cl)sc1Cl)N1CCC(N2CCN([C@H]3CCN(C(=O)c4cc(C(F)(F)F)cc(C(F)(F)F)c4)[C@H](Cc4ccccc4)C3)CC2)C1` (stereo partly drawn) [Compound 44], in that order: 0.0501 µM, 6.31 µM and 0.631 µM.
For the molecule `Cc1cc(C(=O)N2CCC(N3CCN([C@H]4CCN(C(=O)c5cc(C(F)(F)F)cc(C(F)(F)F)c5)[C@H](Cc5ccccc5)C4)CC3)C2)no1` (stereo partly drawn) [Compound 46], the results for the IC50 at NK1, at NK2 and at NK3 were 0.0316 µM, 3.98 µM and 1.26 µM, respectively.
As to `Cc1onc(-c2c(Cl)cccc2Cl)c1C(=O)N1CCC(N2CCN([C@H]3CCN(C(=O)c4cc(C(F)(F)F)cc(C(F)(F)F)c4)[C@H](Cc4ccccc4)C3)CC2)C1` (stereo partly drawn) [Compound 49], the IC50 was 0.0251 µM on NK1, 3.16 µM on NK2 and 0.251 µM on NK3.
In the case of `O=C(c1c[nH]c2ccccc12)N1CCC(N2CCN([C@H]3CCN(C(=O)c4cc(C(F)(F)F)cc(C(F)(F)F)c4)[C@H](Cc4ccccc4)C3)CC2)C1` (stereo partly drawn) [Compound 56], the IC50 on NK1 was 0.0398 µM; on NK2, 3.16 µM; at NK3, 0.126 µM.
For the molecule `O=C(C(=O)N1CCC(N2CCN(C3CCN(C(=O)c4cc(C(F)(F)F)cc(C(F)(F)F)c4)C(Cc4ccccc4)C3)CC2)C1)c1ccco1` (stereo not drawn) [Compound 64], the IC50 was 0.0501 µM at NK1, 2.51 µM on NK2 and 0.158 µM on NK3.
In the case of `O=C(Cc1ccco1)N1CCC(N2CCN([C@H]3CCN(C(=O)c4cc(C(F)(F)F)cc(C(F)(F)F)c4)[C@H](Cc4ccccc4)C3)CC2)C1` (stereo partly drawn) [Compound 66], the figures for the IC50 at NK1, at NK2 and on NK3 were 0.0251 µM, 5.01 µM and 0.398 µM, respectively.
For the molecule `O=C(Cc1cccs1)N1CCC(N2CCN([C@H]3CCN(C(=O)c4cc(C(F)(F)F)cc(C(F)(F)F)c4)[C@H](Cc4ccccc4)C3)CC2)C1` (stereo partly drawn) [Compound 67], the values for the IC50 at NK1, at NK2 and at NK3 were 0.0251 µM, 3.98 µM and 1 µM, respectively.
Turning to `CC(C(=O)N1CCC(N2CCN([C@H]3CCN(C(=O)c4cc(C(F)(F)F)cc(C(F)(F)F)c4)[C@H](Cc4ccccc4)C3)CC2)C1)c1ccccc1` (stereo partly drawn) [Compound 69], the IC50 at NK1 is 0.0126 µM; at NK2 it was 0.631 µM; at NK3 it was 0.501 µM.
On to `O=C(C1CC1)N1CCC(N2CCN([C@H]3CCN(C(=O)c4cc(C(F)(F)F)cc(C(F)(F)F)c4)[C@H](Cc4ccccc4)C3)CC2)C1` (stereo partly drawn) [Compound 72], for which the values for the IC50 at NK1, at NK2 and on NK3 were 0.0501 µM, 0.0631 µM and 0.794 µM, respectively.
In the same order, the values of `O=C(c1cc(C(F)(F)F)cc(C(F)(F)F)c1)N1CC[C@H](N2CCN(C3CCN(S(=O)(=O)c4ccccc4)C3)CC2)C[C@H]1Cc1ccccc1` (stereo partly drawn) [Compound 75] are 0.0251 µM, 1 µM and 0.398 µM.
With `O=C(c1cc(C(F)(F)F)cc(C(F)(F)F)c1)N1CC[C@H](N2CCN(C3CCN(S(=O)(=O)c4cccs4)C3)CC2)C[C@H]1Cc1ccccc1` (stereo partly drawn) [Compound 76], the IC50 on NK1 was 0.02 µM; on NK2, 1.26 µM; on NK3, 0.2 µM.
Consider `COC(=O)c1sccc1S(=O)(=O)N1CCC(N2CCN([C@H]3CCN(C(=O)c4cc(C(F)(F)F)cc(C(F)(F)F)c4)[C@H](Cc4ccccc4)C3)CC2)C1` (stereo partly drawn) [Compound 77], for which the values for the IC50 on NK1, at NK2 and on NK3 were 0.02 µM, 2.51 µM and 0.501 µM, respectively.
Regarding `Cc1nc(S(=O)(=O)N2CCC(N3CCN([C@H]4CCN(C(=O)c5cc(C(F)(F)F)cc(C(F)(F)F)c5)[C@H](Cc5ccccc5)C4)CC3)C2)cn1C` (stereo partly drawn) [Compound 78], the IC50 is 0.0316 µM at NK1, 0.398 µM at NK2 and 0.251 µM at NK3.
Turning to `Cc1noc(C)c1S(=O)(=O)N1CCC(N2CCN(C3CCN(C(=O)c4cc(C(F)(F)F)cc(C(F)(F)F)c4)C(Cc4ccccc4)C3)CC2)C1` (stereo not drawn) [Compound 79], the IC50 on NK1 was 0.0158 µM; on NK2 it was 1 µM; at NK3 it was 0.501 µM.
